This is an account of results in patent publication US11440870B2, “Cannabidiolic acid esters compositions and uses thereof” (Yissum Research Development Company of the Hebrew …, priority 2017, dated 2022).

Structures are written as SMILES.

The target of this test is T1, human 5-HT1A receptors (Homo sapiens, UniProt P08908).
T1 construct: expressed in transfected cells; membranes used
T1 sequence (P08908 1-422): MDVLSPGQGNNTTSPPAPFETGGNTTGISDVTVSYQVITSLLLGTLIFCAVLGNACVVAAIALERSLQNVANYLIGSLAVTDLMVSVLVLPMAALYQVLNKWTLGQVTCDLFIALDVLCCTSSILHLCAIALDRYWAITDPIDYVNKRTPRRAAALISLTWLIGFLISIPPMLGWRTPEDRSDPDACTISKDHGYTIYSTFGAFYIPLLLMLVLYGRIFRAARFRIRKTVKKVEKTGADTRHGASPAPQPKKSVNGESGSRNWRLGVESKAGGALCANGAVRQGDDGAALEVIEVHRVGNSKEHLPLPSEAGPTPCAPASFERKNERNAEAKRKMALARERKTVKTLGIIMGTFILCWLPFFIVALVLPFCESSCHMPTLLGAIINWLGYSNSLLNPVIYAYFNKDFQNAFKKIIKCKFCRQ
Briefly: [35S]-GTPγS binding assay: enhancement of 8-OH-DPAT-induced stimulation, human 5-HT1A CHO cell membranes. Format: biochemical. The conditions noted are these: n=6. As to the method: CHO cells stably transfected with cDNA encoding human 5-HT1A receptors (a generous gift from Dr Keith Parker) were maintained at 37° C. and 5% CO2 in Gibco™ Ham's F-12 Nutrient Mix supplied by Fisher Scientific UK Ltd that was supplemented both with 2 mM L-glutamine, 10% FBS and 0.6% penicillin-streptomycin, all also supplied by Fisher Scientific UK Ltd, and with the disulphate salt of G418 [(2R,3S,4R,5R,6S)-5-amino-6-{[(1R,2S,3S,4R,6S)-4,6-diamino-3-{[(2R,3R,4R,5R)-3,5-dihy-droxy-5-methyl-4-(methylamino)oxan-2-yl]oxy}2-hydroxy cyclohexyl]oxy}-2-[(1R)-1-hydroxyethyl]oxane-3,4-diol; […]] supplied by Sigma-Aldrich UK.
[^35S]-GTPγS binding assay. Each assay was carried out with human 5-HT1A CHO cell membranes (50 μg protein per well), GTPγS-binding buffer (50 mM Tris-HCl; 50 mM Tris-Base; 5 mM MgCl2; 1 mM EDTA; 100 mM NaCl; 1 mM DTT and 0.1% BSA), 0.1 nM [^35S]-GTPγS and 30 μM GDP, in a final volume of 500 μL (Cascio et al., 2010). Binding was initiated by the addition of [^35S]-GTPγS to the wells. Non-specific binding was measured in the presence of 30 μM GTPγS. Assays were performed at 30° C. for 60 min (Cascio et al., 2010). The reaction was terminated by a rapid vacuum filtration method using Tris-binding buffer as described previously by Cascio et al. (2010), and the radioactivity was quantified by liquid scintillation spectrometry. In all the [^35S]-GTPγS-binding assays, 0.1 nM [^35S]-GTPγS was used, […] and a protein concentration of […]. CBDA, HU-580, 8-OH-DPAT and WAY100635 were stored at −20° C. as 10 mM stock solutions dissolved in DMSO.
Net agonist-stimulated [^35S]-GTPγS binding values were calculated by subtracting basal binding values (obtained in the absence of agonist) from agonist-stimulated values (obtained in the presence of agonist) (Cascio et al., 2010). Values are expressed as means and variability as SEM or as 95% confidence limits. Mean EC50 and mean maximal effect (Emax) values, and SEM or 95% confidence limits of these values, have been calculated by nonlinear regression analysis using the equation for a sigmoid concentration-response curve (GraphPad Prism). P values<0.05 were considered significant. The data and statistical analysis comply with the recommendations on experimental design and analysis in pharmacology (Curtis et al., 2015).
A general note: Binding of GTPγS marks nucleotide exchange on a G protein.

Take `C=C(C)[C@@H]1CCC(C)=C[C@H]1c1c(O)cc(CCCCC)c(C(=O)O)c1O` [CBDA, Cannabidiolic acid]: the Emax came to 95.6% (pretreatment 0.01 nM CBDA (FIG. 1A)); 115% (pretreatment 0.1 nM CBDA (FIG. 1B), * P<0.05 vs vehicle); 167% (pretreatment 1.0 nM CBDA (FIG. 1C), * P<0.05 vs vehicle); 144% (pretreatment 10 nM CBDA (FIG. 1D), * P<0.05 vs vehicle); 109% (pretreatment 100 nM CBDA (FIG. 1E)).

As for `C=C(C)[C@@H]1CCC(C)=C[C@H]1c1c(O)cc(CCCCC)c(C(=O)OC)c1O` [HU-580, Cannabidiolic Acid Methyl Ester], where the note is “administered by itself at 0.01, 0.1, 1, 10 or 100 nM, data not shown”, the “Effect of the compound by itself on [35S]-GTPγS binding (agonist or inverse agonist behaviour)” value is “did not behave as a 5-HT1A receptor agonist or inverse agonist”. The Emax was determined as 99.8% (pretreatment 0.001 nM HU-580 (FIG. 2A)); 127% (pretreatment 0.001 nM HU-580 (FIG. 2B), * P<0.05 vs vehicle); 125% (pretreatment 0.1 nM HU-580 (FIG. 2C), * P<0.05 vs vehicle); 140% (pretreatment 1.0 nM HU-580 (FIG. 2D), * P<0.05 vs vehicle); 139% (pretreatment 10 nM HU-580 (FIG. 2E), * P<0.05 vs vehicle); 92% (pretreatment 100 nM HU-580 (FIG. 2F)).

Usually Emax stands for the size of the effect at its maximum, as opposed to the concentration needed.
